According to patent EP1566177A1, “The use of bisphosphonates for treating skin by stimulating of collagen synthesis” (Tigen Biotech Co., Ltd., priority 2004, dated 2005):

Columns and labels:
Format in all cases: cell-based
[1] = tested on: fibroblasts isolated from human dermis; test: RT-PCR analysis of type 1 collagen mRNA level, two-dimensional culture of dermal fibroblasts
Procedure: Namely, total mRNA to be used in cDNA synthesis was isolated from the cells of the control and test groups using an RNeasy mini kit (QIAGEN, CA, USA). Then, the amount of the isolated total mRNA was calculated by measuring the absorbance at 260nm/280nm using an UV spectrophotometer (Eppendorf, Hamburg, Germany), thus quantifying the extracted mRNA and determining its purity (data not shown). Thereafter, 0.5 µg of the total mRNA was reacted with reverse transcriptase (Promega, WI, USA) using an oligo d(T) primer for one hour at 42 °C and for 5 minutes at 95 °C, and then the reaction was stopped at 4°C, thus synthesizing cDNA. The synthesized cDNA template was subjected to polymerase chain reaction (hereinafter, referred to as "PCR") using complementary primers of 5'-[sequence]-3' (SEQ ID NO: 1) (sense) and 5'-[sequence]-3' (SEQ ID NO: 2) (anti-sense). In the RT-PCR reaction, water was added to a reaction mixture of 0.5 µl of the template, 0.7 µl of each primer (10 pmole/µl) and PCR premix (Bioneer, Korea) to a final volume of 20 µl, and then, the aqueous mixture was pre-denatured at 94°C for 5 minutes using a thermal cycler and then subjected to 25 PCR cycles (each cycle consisting of 30 seconds at 94 °C, 30 seconds at 58 °C, and 30 seconds at 72 °C). Also, in the RT-PCR reaction, glyceraldehyde-3-phosphate dehydrogenase (GAPDH) was used as a positive control.
Then, the isolated fibroblasts were cultured in the second culture medium as described above under the same conditions for 2 days. Then, the cultured fibroblasts were supplied with a second culture medium containing 100 nM pamidronate at 3-day intervals and cultured in the medium for each period of 1 week, 2 weeks and 3 weeks. Also, fibroblasts cultured in a second culture medium containing 1mM vitamin C were used as a positive control group, and fibroblasts cultured in a secondary culture medium containing no vitamin C and pamidronate was used as a control group. […]

[2] = tested on: fibroblasts isolated from human dermis; test: Western blot analysis of type 1 collagen expression, two-dimensional culture of dermal fibroblasts
Text: The levels of type 1 collagen in the 3-week cultured control group (3WC) and the 3-week cultured test group (3WR), which had been collected in Example 1-2), were compared with each other. For this purpose, each sample was subjected to Western blot analysis. In the Western blot analysis, each sample was electrophoresed on 8% SDS-PAGE gel, and the resulting collagen band was transferred to a nitrocellulose membrane and then treated with type 1 collagen monoclonal antibody (Abcam, Cambridge, UK) (see FIG. 2). In the Western blot analysis, actin was also used as a positive control group.
Fibroblasts were isolated from skin dermis and subcultured, in the same manner as in Example 2. Then, the isolated fibroblasts were cultured in the second culture medium as described above under the same conditions for 2 days. Then, the cultured fibroblasts were supplied with a second culture medium containing 100 nM pamidronate at 3-day intervals and cultured in the medium for each period of 1 week, 2 weeks and 3 weeks. […]
RT-PCR on each of the 1-week, 2-week and 3-week cultured control groups, the 1-week, 2-week and 3-week cultured test group administered with pamidronate, and the 1-week, 2-week and 3-week cultured positive control group administered with vitamin. […] The mRNA levels of type 1 collagen in the samples, as measured in the RT-PCR reactions, were shown in FIG. 4 for comparison with each other. […]

[3] = tested on: fibroblasts isolated from human oral epithelium; test: Western blot analysis of type 1 collagen protein level, two-dimensional culture of oral fibroblasts; conditions: 100 ng/ml pamidronate together with 1mM vitamin C; 3-week culture (3WR) vs control (3WC)
Procedure: (§1) The epithelium naturally exuded from a patient who had been undergoing a surgical operation due to oral diseases was mixed with […] DMEM (LG-DMEM, glucose 1g/L, GIBCO, MO, USA) medium, a first culture medium, and the mixture was pre-centrifuged to isolate cells. The cells were ultra-centrifuged using Percoll solution (SIGMA, MD, USA), thus isolating only nucleated cells. The nucleated cells isolated as described above cultured in an incubator under conditions of 5% (v/v) CO2 and 37.5 °C while replacing a second culture medium (high-glucose DMEM medium containing 10% bovine fetal serum) at two-day intervals, and only fibroblasts were isolated from the culture medium.
The isolated fibroblasts were cultured in said second culture medium under the same conditions for 2 days to saturate them. Then, the saturated fibroblasts were cultured in a second culture medium containing 1mM vitamin C and 100 ng/ml pamidronate (Hanlim Pharm. Co., Ltd., Korea) for each period of 1 week, 2 weeks and 3 weeks, while replacing the medium at 3-day intervals. As a control group, a second culture medium containing no vitamin C and pamidronate was used.
The levels of type 1 collagen in the 3-week cultured control group (3WC) and the 3-week cultured test group (3WR), which had been collected in Example 1-2), were compared with each other. […]

[4] = tested on: fibroblasts isolated from human dermis; test: Three-dimensional culture of dermal fibroblasts on PLGA support, haematoxylin-eosin staining of collagen layer; conditions: 100 nM pamidronate together with 1 mM vitamin C; 4 weeks; control: vitamin C alone
Procedure: A given amount of dermal tissue was excised from the skin of three normal persons. The excised human dermis from which an epidermal and fatty layer had been removed was finely cut and treated with collagenase so as to isolate dermis from epidermis. The isolated dermal tissue was cultured in 0.25% trypsin solution at 36 °C for 10 minutes. Then, the culture broth was vortexed to isolate fibroblasts. The isolated cells were collected and washed, and then cultured in a DMEM medium (GIBCO, MO, U.S.A.) containing 10% fetal bovine serum (FBS). At about 70% confluence, they were subcultured.
A PLGA-based, disc-shaped polymer support (Innotech., Korea) with a diameter of 10 mm, a thickness of 3 mm, an average pore size of 300-500 µm and a porosity of 90%, was used in three-dimensional culture. The support was treated with 100 %(v/v), 90 %(v/v), 70 %(v/v) and then 10 %(v/v) ethanol in order, at 4 °C for each treatment, and washed with PBS (phosphate buffered saline) and a second culture medium followed by drying. Next, 100 µl of a suspension of 1 x 10^6 dermal fibroblasts cultured as described above was plated on the support and cultured in a culture dish with a diameter of 60 mm. After two hours, 6 ml of the second culture medium as described above was added to the cells, and the mixture was cultured in a shaking incubator (30rpm). […]

[5] = tested on: fibroblasts isolated from human oral epithelium; test: RT-PCR analysis of type 1 collagen mRNA level, two-dimensional culture of oral fibroblasts; conditions: 100 ng/ml pamidronate together with 1mM vitamin C; cultured 1, 2 and 3 weeks (1WR, 2WR, 3WR) vs control medium without both
Procedure: as §1
The isolated fibroblasts were cultured in said second culture medium under the same conditions for 2 days to saturate them. […]
The collagen mRNA levels of the 1-week cultured control group (1WC), the 2-week cultured control group (2WC), the 3-week cultured control group (3WC), the 1-week cultured test group (1WR), the 2-week cultured test group (2WR) and the 3-week cultured group (3WR), which had been collected in Example 1-2), were measured and compared with each other. […]

SMILES: O=C1O[C@H]([C@@H](O)CO)C(O)=C1O [vitamin C]
- mRNA level of type 1 collagen ([1]; 1mM vitamin C alone (positive control), cultured 1, 2 and 3 weeks): increased rapidly in the initial stage of culture, but it was reduced with an increase in culture time

SMILES: NCCC(O)(P(=O)(O)O)P(=O)(O)O [pamidronate, 3-amino-1-hydroxypropylidene-1,1-bisphosphonic acid]
- expression level of type 1 collagen ([2]; 100 nM pamidronate alone, three weeks of culture, compared with single addition of 1mM vitamin C): remarkable increase
- mRNA level of type 1 collagen ([1]; 100 nM pamidronate alone, cultured 1, 2 and 3 weeks): high regardless of culture period
- type 1 collagen protein level [3]: synthesized at a remarkably high level
- layer of collagen adhered to the surface of the PLGA support [4]: much thicker than the case of addition of vitamin C alone
- mRNA level of type 1 collagen [5]: higher mRNA level than that of the 3-week cultured control group

SMILES: NCCCC(O)(P(=O)(O)O)P(=O)(O)O [alendronate, 4-amino-1-hydroxybutylidene-1,1-bisphospnonic acid]
- type 1 collagen protein (Western blot) ([2]; alendronate alone, same concentration as pamidronate (100 nM), cultured one week, FIG. 7): remarkably increased
- mRNA level of type 1 collagen ([1]; alendronate alone, same concentration as pamidronate (100 nM), cultured one week, FIG. 6): remarkably increased
